Reference: patent US4999444A, “Novel neutral mixed ligand platinum(II) and platinum(IV) complexes” (Warner-Lambert Co., priority 1989, dated 1991)
Where two headings read alike, the source gives them in different places.

Tests used:
P388S = assay: In vitro cytotoxicity (ID50, 72 h growth inhibition), P388S; type: cell-based, murine
Method: (§1) ID50 values are the concentration of complex required to inhibit the in vitro growth of treated cells to a level of 50% of that for untreated cells over a 72-hour period. The cell lines are suspended in appropriate media at a concentration which results in the cells remaining in log phase growth throughout the treatment period. Serially diluted drug is added to duplicate wells containing the cell growth. After 72 hours of incubation of the cell lines in 5% CO2, the cells are counted and the ID50 values determined.

[1] = tested on: P-388/Pt (Cisplatin Resistant); assay: In vivo antitumor activity, P-388 (Lymphocytic Leukemia), P-388/Pt (Cisplatin Resistant); design: species or system mice (murine leukemia); conditions: IP, Days 1, 5, 9; for % T/C: best responses
Text: (§2) The screening tests employing these cell lines are described in Geran et al., "Protocols for Screening Chemical Agents and Natural Products Against Animal Tumors and Other Biological Systems," Cancer Chemotherapy Reports, Part 3, Vol. 3, No. 2, pages 1-85 (1972). The L1210 and P388 screening methods have been cited as the best tools for predicting clinical utility of drugs in the treatment of human solid tumors as well as human leukemias and lymphomas (Venditti, "Relevance of Transplantable Animal-Tumor Systems to the Selection of New Agents for Clinical Trial," Pharmacological Basis of Cancer Chemotherapy, […] Pub. Co. (1975)).
^g Schedule: Days 1, 5, 9

L1210PtR4 = assay: In vitro cytotoxicity (ID50, 72 h growth inhibition), L1210PtR4; type: cell-based, murine; conditions: for ID50: in vitro, 72 h
Method: as §1
(§3) Resistance ratio values shown in Table 1 were calculated by dividing the ID50 values against the resistant cell lines by the ID50 values against the normal cell lines. The resistance ratio values shown in the table indicate a measure of the degree of resistance of the cell line to a particular drug.

P388Pt4 = assay: In vitro cytotoxicity (ID50, 72 h growth inhibition), P388Pt4; type: cell-based, murine; conditions: for ID50: in vitro, 72 h
Method: as §1, §3

L-1210 Leukemia = assay: In vivo antitumor activity in mice, L-1210 Leukemia; design: species or system mice (murine leukemia); conditions: IP, Days 3, 7, 11; for % T/C: best responses
Text: as §2
In Table 2, the ratio of median survival time of laboratory mice which had been treated with the test compound to untreated control animals is expressed as a percentage (%T/C values). […] Data for the prior art complex cisplatin is included for comparison.
^a Inoculum: 10,000 cells (IP)
^b Schedule: Days 3, 7, 11

[2] = tested on: L-1210/Pt Leukemia (Cisplatin Resistant); assay: In vivo antitumor activity in mice, L-1210/Pt Leukemia (Cisplatin Resistant); design: species or system mice (murine leukemia); conditions: IP, Days 3, 7, 11; for % T/C: best responses
L1210DACH = assay: In vitro cytotoxicity (ID50, 72 h growth inhibition), L1210DACH (Pt(DACH)Cl2-resistant L1210); type: cell-based, murine; conditions: for ID50: in vitro, 72 h
Method: as §1, §3

L1210DDP5 = assay: In vitro cytotoxicity (ID50, 72 h growth inhibition), L1210DDP5; type: cell-based, murine; conditions: for ID50: in vitro, 72 h
Method: as §1, §3

L1210S = assay: In vitro cytotoxicity (ID50, 72 h growth inhibition), L1210S; type: cell-based, murine
Method: as §1

[3] = tested on: parent L1210 and P388 leukemia cell lines; assay: In vivo activity against parent L1210 and P388 leukemia; design: species or system mice (murine leukemia)
Text: as §2
(§4) In Table 2, the ratio of median survival time of laboratory mice which had been treated with the test compound to untreated control animals is expressed as a percentage (%T/C values). Laboratory mice were implanted intraperitonealy with the L1210 murine leukemia cell line on Day 0 and treated with intraperitoneal injections of representative platinum complexes of the present invention on Days 3 and 7 at the dosages indicated. Data for the prior art complex cisplatin is included for comparison.

[4] = tested on: L1210 and P388 murine leukemia cell lines; assay: Antitumor activity in L1210 and P388 murine leukemia, in vitro and in vivo; conditions: in vitro and in vivo test results
Method: as §1, §2
In Table 2, the ratio of median survival time of laboratory mice which had been treated with the test compound to untreated control animals is expressed as a percentage (%T/C values). […]

[5] = tested on: cisplatin-resistant cells; assay: Activity against cisplatin-resistant cells in vitro and in vivo; design: species or system murine
Method: as §1, §3, §4

[6] = first pair of lines, 5.0 mg/kg/injection
[7] = second pair of lines, 5.0 mg/kg/injection
[8] = first pair of lines, 3.7 mg/kg/injection
[9] = second pair of lines, 3.7 mg/kg/injection
[10] = ID50 resistant line / ID50 normal line, 4320 min

Compound: N.N.[Cl][Pt][Cl] [Cisplatin, cis-diaminedichloroplatinum(II), reference compound]
- ID50 (P388S): 0.128 µg/mL
- Log10 Kill Net [1, 6]: 6.8
- % T/C [1, 6]: 261%
- Log10 Kill Net [1, 7]: -1.5
- % T/C [1, 7]: 132%
- ID50 (L1210PtR4): 7.84 µg/mL
- ID50 (P388Pt4): 10.0 µg/mL
- 60 Day Survivors (L-1210 Leukemia; 4.0 mg/kg/injection): 1/6
- Log10 Kill Gross (L-1210 Leukemia; 4.0 mg/kg/injection): 9.4
- Log10 Kill Net (L-1210 Leukemia; 4.0 mg/kg/injection): 0.9
- MLS (median life span) (L-1210 Leukemia; 4.0 mg/kg/injection): 19.5 days
- Weight Change (L-1210 Leukemia; 4.0 mg/kg/injection): 1.0 grams
- % T/C (L-1210 Leukemia; 4.0 mg/kg/injection): 184%
- 60 Day Survivors (L-1210 Leukemia; 6.0 mg/kg/injection): 1/6
- Log10 Kill Gross (L-1210 Leukemia; 6.0 mg/kg/injection): 8.3
- Log10 Kill Net (L-1210 Leukemia; 6.0 mg/kg/injection): -0.1
- MLS (median life span) (L-1210 Leukemia; 6.0 mg/kg/injection): 18.5 days
- Weight Change (L-1210 Leukemia; 6.0 mg/kg/injection): -1.9 grams
- % T/C (L-1210 Leukemia; 6.0 mg/kg/injection): 175%
- 60 Day Survivors ([2]; 4.0 mg/kg/injection): 0/6
- Log10 Kill Gross ([2]; 4.0 mg/kg/injection): 0.7
- Log10 Kill Net ([2]; 4.0 mg/kg/injection): -2.5
- MLS (median life span) ([2]; 4.0 mg/kg/injection): 11.1 days
- % T/C ([2]; 4.0 mg/kg/injection): 109%
- 60 Day Survivors ([2]; 6.0 mg/kg/injection): 0/6
- Log10 Kill Gross ([2]; 6.0 mg/kg/injection): 1.5
- Log10 Kill Net ([2]; 6.0 mg/kg/injection): -2.4
- MLS (median life span) ([2]; 6.0 mg/kg/injection): 12.0 days
- Weight Change ([2]; 6.0 mg/kg/injection): -3.7 grams
- % T/C ([2]; 6.0 mg/kg/injection): 118%
- ID50 (L1210DACH; L1210DACH): 0.52 µg/mL
- ID50 (L1210DDP5): 4.11 µg/mL
- ID50 (L1210S): 0.375 µg/mL

Compound: [Cl][Pt]1([Cl])[NH]C2CCC(CC2)[NH]1 [Example 1, [SP-4-2-(c-is)]-Dichloro(1,4-cyclohexanediamine-N,N')-platinum]
- effectiveness against parent L1210 and P388 leukemia in vivo vs cisplatin [3]: equally effective or superior to cisplatin
- antitumor activity, potency and response vs cisplatin [4]: superior to cisplatin both in potency and response
- cross resistance to cisplatin [5]: some degree of cross resistance to cisplatin
- effectiveness against cisplatin-resistant cells vs cisplatin [5]: more effective than cisplatin
- ID50 (P388S): 0.047 µg/mL
- Log10 Kill Net [1, 8]: 5.4
- % T/C [1, 8]: 234%
- Log10 Kill Net [1, 9]: 1.9
- % T/C [1, 9]: 177%
- Fold resistance (resistance ratio) (L1210PtR4; [10]): 4.9 fold
- ID50 (L1210PtR4): 1.21 µg/mL
- Fold resistance (resistance ratio) (P388Pt4; [10]): 30 fold
- ID50 (P388Pt4): 1.43 µg/mL
- 60 Day Survivors (L-1210 Leukemia; 0.8 mg/kg/injection): 0/6
- Log10 Kill Gross (L-1210 Leukemia; 0.8 mg/kg/injection): 3.4
- Log10 Kill Net (L-1210 Leukemia; 0.8 mg/kg/injection): -1.5
- MLS (median life span) (L-1210 Leukemia; 0.8 mg/kg/injection): 13.0 days
- % T/C (L-1210 Leukemia; 0.8 mg/kg/injection): 130%
- 60 Day Survivors (L-1210 Leukemia; 1.5 mg/kg/injection): 0/6
- Log10 Kill Gross (L-1210 Leukemia; 1.5 mg/kg/injection): 13.1
- Log10 Kill Net (L-1210 Leukemia; 1.5 mg/kg/injection): 4.6
- MLS (median life span) (L-1210 Leukemia; 1.5 mg/kg/injection): 23.0 days
- % T/C (L-1210 Leukemia; 1.5 mg/kg/injection): 217%
- 60 Day Survivors (L-1210 Leukemia; 3.0 mg/kg/injection): 1/6
- Log10 Kill Gross (L-1210 Leukemia; 3.0 mg/kg/injection): 11.5
- Log10 Kill Net (L-1210 Leukemia; 3.0 mg/kg/injection): 3.1
- MLS (median life span) (L-1210 Leukemia; 3.0 mg/kg/injection): 21.5 days
- % T/C (L-1210 Leukemia; 3.0 mg/kg/injection): 203%
- 60 Day Survivors (L-1210 Leukemia; 6.3 mg/kg/injection): 0/6
- Log10 Kill Gross (L-1210 Leukemia; 6.3 mg/kg/injection): 0.1
- Log10 Kill Net (L-1210 Leukemia; 6.3 mg/kg/injection): -1.9
- MLS (median life span) (L-1210 Leukemia; 6.3 mg/kg/injection): 10.7 days
- % T/C (L-1210 Leukemia; 6.3 mg/kg/injection): 101%
- 60 Day Survivors ([2]; 0.8 mg/kg/injection): 0/6
- Log10 Kill Gross ([2]; 0.8 mg/kg/injection): 2.1
- Log10 Kill Net ([2]; 0.8 mg/kg/injection): -2.2
- MLS (median life span) ([2]; 0.8 mg/kg/injection): 12.8 days
- % T/C ([2]; 0.8 mg/kg/injection): 126%
- 60 Day Survivors ([2]; 1.5 mg/kg/injection): 0/6
- Log10 Kill Gross ([2]; 1.5 mg/kg/injection): 4.5
- Log10 Kill Net ([2]; 1.5 mg/kg/injection): -1.7
- MLS (median life span) ([2]; 1.5 mg/kg/injection): 15.7 days
- % T/C ([2]; 1.5 mg/kg/injection): 154%
- 60 Day Survivors ([2]; 3.0 mg/kg/injection): 2/6
- Log10 Kill Gross ([2]; 3.0 mg/kg/injection): 5.5
- Log10 Kill Net ([2]; 3.0 mg/kg/injection): -1.0
- MLS (median life span) ([2]; 3.0 mg/kg/injection): 17.0 days
- % T/C ([2]; 3.0 mg/kg/injection): 167%
- 60 Day Survivors ([2]; 6.3 mg/kg/injection): 0/6
- Log10 Kill Gross ([2]; 6.3 mg/kg/injection): 0.1
- Log10 Kill Net ([2]; 6.3 mg/kg/injection): -2.7
- MLS (median life span) ([2]; 6.3 mg/kg/injection): 10.3 days
- % T/C ([2]; 6.3 mg/kg/injection): 101%
- cross resistance to Pt(DACH)Cl2-resistant L1210 cells in culture (L1210DACH): four
- Fold resistance (resistance ratio) (L1210DACH; ID50 resistant line / ID50 normal line, L1210DACH, 4320 min): 4.3 fold
- ID50 (L1210DACH; L1210DACH): 1.08 µg/mL
- Fold resistance (resistance ratio) (L1210DDP5; [10]): 2.7 fold
- ID50 (L1210DDP5): 0.663 µg/mL
- ID50 (L1210S): 0.248 µg/mL

Compound: NC1CCCCC1N.[Cl][Pt][Cl] (stereo not drawn) [[Pt(trans-l-DACH)Cl2], [SP-4-2-(1R-trans)]-dichloro(1,2-cyclohexanediamine-N,N')platinum, reference compound]
- ID50 (P388S): 0.077 µg/mL
- ID50 (L1210PtR4): 0.161 µg/mL
- ID50 (P388Pt4): 0.83 µg/mL
- cross resistance to Pt(DACH)Cl2-resistant L1210 cells in culture (L1210DACH; 4320 min): 77 fold
- ID50 (L1210DACH; L1210DACH): 4.57 µg/mL
- ID50 (L1210DDP5): 0.164 µg/mL
- ID50 (L1210S): 0.059 µg/mL
